Experiments:
[1] = tested on: Human papillomavirus type 16; assay: Antiviral activity against HPV-16 infected in human W12-20850 cells after 4 days by non-radioactive hybrid capture technique; assay type: functional, organism-based, Human papillomavirus 16
[2] = (§1) Cytotoxicity against human HFF cells; assay type: cell-based; conditions: HFF cells
HFF = assay: as §1; assay type: cell-based; conditions: hff
[3] = Selectivity index, ratio of cytotoxicity against human keratinocytes to antiviral activity against HPV-16; assay type: toxicity; conditions: read-out: Selectivity Index
[4] = Selectivity index, ratio of cytotoxicity against african green monkey Vero cells to antiviral activity against HPV-16; assay type: toxicity, cell-based; conditions: read-out: Selectivity Index
[5] = Half life in rat at 10 mg/kg administered as suspension; assay type: ADME, organism-based; set-up: dose 10 mg/kg; conditions: in vivo
[6] = Volume of distribution in rat at 10 mg/kg administered as suspension; assay type: ADME, organism-based; set-up: dose 10 mg/kg; conditions: in vivo
[7] = Bioavailability in rat at 10 mg/kg administered as suspension; assay type: ADME, organism-based; conditions: in vivo
[8] = Clearance in rat at 10 mg/kg administered as suspension; assay type: ADME, organism-based; set-up: dose 10 mg/kg; conditions: in vivo
[9] = Human papillomavirus 16, W12-20850, 96 h

| Structure (SMILES) | IC50 [1, 9] [µM] | CC50 [2] [µM] | also measured |
| --- | --- | --- | --- |
| Cc1ccc2[nH]c3c(c2c1)CCC[C@@H]3N[C@H](C)c1ccccc1 | 7.1 | 41 | – |
| C[C@H](N[C@H]1CCCc2c1[nH]c1ccc(Br)cc21)c1ccccc1 | – | – | IC50 ([1]; w12-20850): 2.85 µM; CC50 (HFF): 28.5 µM |
| Cc1ccc2[nH]c3c(c2c1)CCC[C@H]3N[C@@H](C)c1ccccc1 | 0.2 | 29 | – |
| Cc1ccc2[nH]c3c(c2c1)CCC[C@@H]3N[C@@H](C)c1ccccc1 | 6.7 | 36 | – |
| C[C@@H](N[C@H]1CCCc2c1[nH]c1ccc(Br)cc21)c1ccccc1 | > 0.5 | > 30 | – |
| C[C@@H](N[C@@H]1CCCc2c1[nH]c1ccc(Br)cc21)c1ccccc1 | 0.03 | 9 | selectivity ratio [3]: > 300; selectivity ratio [4]: > 500; half-life [5]: 4.4 h; Vd [6]: 1.9 L/kg; bioavailability [7]: 47%; clearance [8]: 13.4 mL/min/kg |
| C[C@H](N[C@@H]1CCCc2c1[nH]c1ccc(Br)cc21)c1ccccc1 | 0.02 | 15 | – |
| Cc1ccc2[nH]c3c(c2c1)CCC[C@H]3N[C@H](C)c1ccccc1 | 0.3 | 29 | – |
| CCNC1CCCc2c1[nH]c1ccc(C)cc21 (racemic) | > 20 | > 20 | – |
| Brc1ccc2[nH]c3c(c2c1)CCCC3NCCc1ccccc1 (racemic) | 0.41 | 11.4 | – |
| Cc1ccc2[nH]c3c(c2c1)CCCC3NCCc1ccccc1 (racemic) | 2.7 | 13.5 | – |
| Fc1ccc2[nH]c3c(c2c1)CCCC3NCc1ccccc1 (racemic) | 1.6 | 35.9 | – |
| Cc1ccc2[nH]c3c(c2c1)CCCC3NC(C)c1ccccc1 (racemic) | 0.54 | 40 | – |
| OCCNC1CCCc2c1[nH]c1ccc(Br)cc21 (racemic) | 6.83 | 20.1 | – |
| Brc1cccc2c3c([nH]c12)C(NCc1ccccc1)CCC3 (racemic) | 11.4 | > 40 | – |
| Brc1ccc2c3c([nH]c2c1)C(NCc1ccccc1)CCC3 (racemic) | 11.1 | > 40 | – |
| Brc1ccc2[nH]c3c(c2c1)CCCC3NC1Cc2ccccc2C1 (racemic) | 0.12 | 30.8 | – |
| C[C@H](N[C@H]1CCCc2c1[nH]c1ccc(Br)cc21)c1ccccc1 (racemic) | – | 22.9 | IC50 ([1]; w12-20850): 0.03 µM |
| CC(C)(NC1CCCc2c1[nH]c1ccc(Br)cc21)c1ccccc1 (racemic) | 0.6 | > 40 | – |
| Clc1ccc2[nH]c3c(c2c1)CCCC3NCc1ccccc1 (racemic) | 0.33 | 27.9 | – |
| Cc1ccc2[nH]c3c(c2c1)CCCC3NCCO (racemic) | > 30 | > 30 | – |
| CCN(CC)CCNC1CCCc2c1[nH]c1ccc(C)cc21 (racemic) | > 30 | > 30 | – |
| c1ccc(CNC2CCCc3c2[nH]c2ccccc32)cc1 (racemic) | 6.7 | 40.4 | – |
| COC(=O)c1ccc2[nH]c3c(c2c1)CCCC3NCc1ccccc1 (racemic) | 19.7 | 44.5 | – |
| Cc1ccc2[nH]c3c(c2c1)CCCC3NC1Cc2ccccc2C1 (racemic) | 0.47 | 40 | – |
| FC(F)(F)c1ccc2[nH]c3c(c2c1)CCCC3NCc1ccccc1 (racemic) | 1 | > 100 | – |
| Cc1ccc2[nH]c3c(c2c1)CCCC3NCc1ccccc1 (racemic) | 1.9 | 21.3 | – |
| Brc1ccc2[nH]c3c(c2c1)CCCC3NCc1ccccc1 (racemic) | 0.15 | 18.8 | – |
| O=[N+]([O-])c1ccc2[nH]c3c(c2c1)CCCC3NCc1ccccc1 (racemic) | 0.23 | 20.4 | – |
| COc1ccc2[nH]c3c(c2c1)CCCC3NCc1ccccc1 (racemic) | 7.6 | 57.9 | – |

From ChEMBL document CHEMBL1136961, “Substituted tetrahydrocarbazoles with potent activity against human papillomaviruses” (Bioorg Med Chem Lett, 2009)
